Laboratory results as given in publication PMC11480411, “Mucosal sugars delineate pyrazine vs pyrazinone autoinducer signaling in Klebsiella oxytoca” (Nature Communications, 2024).

Assays:
Test in all cases: PRESTO-Tango GPCR screen
Assay type in all cases: cell-based
Details in all cases: 100 µM
[1] = molecular target: T1, AGTR1 (Homo sapiens, UniProt P30556)
T1 construct: purchased PRESTO-Tango GPCR kit (Roth lab / Addgene)
In short: (§1)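 HEK293 HTLA line (stable β-arrestin-TEV, tTA-luciferase); receptor-Tango transient transfection, PEI; 20 h compound exposure at 100 μM final; luciferase luminescence; fold vs PBS. Dose curves 10^−4–10^−15 M.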

[2] = molecular target: T2, CRHR1 (Homo sapiens, UniProt P34998)
T2 construct: purchased PRESTO-Tango GPCR kit (Roth lab / Addgene)
In short: as §1

[3] = molecular target: T3, NPY5R (Homo sapiens, UniProt Q15761)
T3 construct: purchased PRESTO-Tango GPCR kit (Roth lab / Addgene)
In short: as §1

[4] = molecular target: T4, P2RY1 (Homo sapiens, UniProt P47900)
T4 construct: purchased PRESTO-Tango GPCR kit (Roth lab / Addgene)
T4 sequence (P47900 whole entry): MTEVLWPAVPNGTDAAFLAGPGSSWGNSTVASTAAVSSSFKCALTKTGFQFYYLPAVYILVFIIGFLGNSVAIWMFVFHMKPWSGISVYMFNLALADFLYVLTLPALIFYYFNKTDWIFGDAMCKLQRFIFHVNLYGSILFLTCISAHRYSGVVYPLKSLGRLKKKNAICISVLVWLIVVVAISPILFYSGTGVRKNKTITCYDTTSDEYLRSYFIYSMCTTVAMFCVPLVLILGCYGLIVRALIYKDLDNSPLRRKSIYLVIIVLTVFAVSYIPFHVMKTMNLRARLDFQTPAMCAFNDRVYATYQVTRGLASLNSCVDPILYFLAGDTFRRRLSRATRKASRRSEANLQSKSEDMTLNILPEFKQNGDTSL
In short: as §1

[5] = molecular target: T5, GRM4 (Homo sapiens, UniProt Q14833)
T5 construct: purchased PRESTO-Tango GPCR kit (Roth lab / Addgene)
In short: as §1

[6] = molecular target: T6, HTR2A (Homo sapiens, UniProt P28223)
T6 construct: purchased PRESTO-Tango GPCR kit (Roth lab / Addgene)
In short: as §1

[7] = molecular target: T7, TACR3 (Homo sapiens, UniProt P29371)
T7 construct: purchased PRESTO-Tango GPCR kit (Roth lab / Addgene)
In short: as §1

[8] = molecular target: T8, GPR141 (Homo sapiens, UniProt Q7Z602)
T8 construct: purchased PRESTO-Tango GPCR kit (Roth lab / Addgene)
T8 sequence (Q7Z602 whole entry): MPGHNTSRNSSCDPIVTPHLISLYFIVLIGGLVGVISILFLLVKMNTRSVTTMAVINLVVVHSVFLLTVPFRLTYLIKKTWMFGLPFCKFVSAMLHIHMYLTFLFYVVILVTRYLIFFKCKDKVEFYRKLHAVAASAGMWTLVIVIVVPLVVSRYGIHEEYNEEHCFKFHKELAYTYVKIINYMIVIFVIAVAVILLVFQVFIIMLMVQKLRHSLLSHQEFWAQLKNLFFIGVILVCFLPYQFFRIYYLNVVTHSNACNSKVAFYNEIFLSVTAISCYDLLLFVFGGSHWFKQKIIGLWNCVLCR
In short: as §1

[9] = molecular target: T9, NPY1R (Homo sapiens, UniProt P25929)
T9 construct: purchased PRESTO-Tango GPCR kit (Roth lab / Addgene)
T9 sequence (P25929 whole entry): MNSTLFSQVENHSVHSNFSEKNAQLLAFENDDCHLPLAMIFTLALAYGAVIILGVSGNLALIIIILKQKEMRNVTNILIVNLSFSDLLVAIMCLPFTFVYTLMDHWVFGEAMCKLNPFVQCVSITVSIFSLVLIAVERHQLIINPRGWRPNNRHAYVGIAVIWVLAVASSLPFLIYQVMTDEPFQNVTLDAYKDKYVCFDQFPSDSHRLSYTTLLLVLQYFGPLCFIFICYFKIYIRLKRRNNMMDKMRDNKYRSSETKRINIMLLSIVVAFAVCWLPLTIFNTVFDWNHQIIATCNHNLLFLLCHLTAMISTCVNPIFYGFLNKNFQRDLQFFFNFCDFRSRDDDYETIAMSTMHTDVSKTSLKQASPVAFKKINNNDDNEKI
In short: as §1

[10] = molecular target: T10, OPN5 (Homo sapiens, UniProt Q6U736)
T10 construct: purchased PRESTO-Tango GPCR kit (Roth lab / Addgene)
In short: as §1

[11] = molecular target: T11, P2RY6 (Homo sapiens, UniProt Q15077)
T11 construct: purchased PRESTO-Tango GPCR kit (Roth lab / Addgene)
T11 sequence (Q15077 whole entry): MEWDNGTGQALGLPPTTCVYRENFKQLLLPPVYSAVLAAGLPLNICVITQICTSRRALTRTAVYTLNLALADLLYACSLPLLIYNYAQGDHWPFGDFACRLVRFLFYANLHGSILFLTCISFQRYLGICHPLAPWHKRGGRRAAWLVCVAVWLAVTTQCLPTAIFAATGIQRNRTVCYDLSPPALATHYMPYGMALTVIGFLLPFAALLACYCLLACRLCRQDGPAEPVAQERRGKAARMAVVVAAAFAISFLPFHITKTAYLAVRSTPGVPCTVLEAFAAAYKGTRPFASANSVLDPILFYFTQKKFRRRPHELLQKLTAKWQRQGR
In short: as §1

[12] = molecular target: T12, GRM2 (Homo sapiens, UniProt Q14416)
T12 construct: purchased PRESTO-Tango GPCR kit (Roth lab / Addgene)
In short: as §1

[13] = molecular target: T13, MCHR2 (Homo sapiens, UniProt Q969V1)
T13 construct: purchased PRESTO-Tango GPCR kit (Roth lab / Addgene)
In short: as §1

[14] = molecular target: T14, NPY4R (Homo sapiens, UniProt P50391)
T14 construct: purchased PRESTO-Tango GPCR kit (Roth lab / Addgene)
In short: as §1

[15] = molecular target: T15, LPAR5 (Homo sapiens, UniProt Q9H1C0)
T15 construct: purchased PRESTO-Tango GPCR kit (Roth lab / Addgene)
T15 sequence (Q9H1C0 whole entry): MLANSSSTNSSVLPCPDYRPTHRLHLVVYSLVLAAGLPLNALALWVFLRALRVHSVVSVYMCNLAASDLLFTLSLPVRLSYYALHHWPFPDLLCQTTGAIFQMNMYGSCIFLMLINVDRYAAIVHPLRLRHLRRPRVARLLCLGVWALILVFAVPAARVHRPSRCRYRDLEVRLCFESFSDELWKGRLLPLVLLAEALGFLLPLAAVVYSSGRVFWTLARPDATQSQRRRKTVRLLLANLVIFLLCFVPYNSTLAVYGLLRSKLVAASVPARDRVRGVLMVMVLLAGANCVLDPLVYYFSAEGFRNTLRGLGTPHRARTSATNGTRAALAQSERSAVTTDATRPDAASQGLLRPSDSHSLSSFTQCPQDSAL
In short: as §1

[16] = molecular target: T16, GPR125 (Homo sapiens, UniProt Q8IWK6)
T16 construct: purchased PRESTO-Tango GPCR kit (Roth lab / Addgene)
T16 sequence (Q8IWK6 34-1321): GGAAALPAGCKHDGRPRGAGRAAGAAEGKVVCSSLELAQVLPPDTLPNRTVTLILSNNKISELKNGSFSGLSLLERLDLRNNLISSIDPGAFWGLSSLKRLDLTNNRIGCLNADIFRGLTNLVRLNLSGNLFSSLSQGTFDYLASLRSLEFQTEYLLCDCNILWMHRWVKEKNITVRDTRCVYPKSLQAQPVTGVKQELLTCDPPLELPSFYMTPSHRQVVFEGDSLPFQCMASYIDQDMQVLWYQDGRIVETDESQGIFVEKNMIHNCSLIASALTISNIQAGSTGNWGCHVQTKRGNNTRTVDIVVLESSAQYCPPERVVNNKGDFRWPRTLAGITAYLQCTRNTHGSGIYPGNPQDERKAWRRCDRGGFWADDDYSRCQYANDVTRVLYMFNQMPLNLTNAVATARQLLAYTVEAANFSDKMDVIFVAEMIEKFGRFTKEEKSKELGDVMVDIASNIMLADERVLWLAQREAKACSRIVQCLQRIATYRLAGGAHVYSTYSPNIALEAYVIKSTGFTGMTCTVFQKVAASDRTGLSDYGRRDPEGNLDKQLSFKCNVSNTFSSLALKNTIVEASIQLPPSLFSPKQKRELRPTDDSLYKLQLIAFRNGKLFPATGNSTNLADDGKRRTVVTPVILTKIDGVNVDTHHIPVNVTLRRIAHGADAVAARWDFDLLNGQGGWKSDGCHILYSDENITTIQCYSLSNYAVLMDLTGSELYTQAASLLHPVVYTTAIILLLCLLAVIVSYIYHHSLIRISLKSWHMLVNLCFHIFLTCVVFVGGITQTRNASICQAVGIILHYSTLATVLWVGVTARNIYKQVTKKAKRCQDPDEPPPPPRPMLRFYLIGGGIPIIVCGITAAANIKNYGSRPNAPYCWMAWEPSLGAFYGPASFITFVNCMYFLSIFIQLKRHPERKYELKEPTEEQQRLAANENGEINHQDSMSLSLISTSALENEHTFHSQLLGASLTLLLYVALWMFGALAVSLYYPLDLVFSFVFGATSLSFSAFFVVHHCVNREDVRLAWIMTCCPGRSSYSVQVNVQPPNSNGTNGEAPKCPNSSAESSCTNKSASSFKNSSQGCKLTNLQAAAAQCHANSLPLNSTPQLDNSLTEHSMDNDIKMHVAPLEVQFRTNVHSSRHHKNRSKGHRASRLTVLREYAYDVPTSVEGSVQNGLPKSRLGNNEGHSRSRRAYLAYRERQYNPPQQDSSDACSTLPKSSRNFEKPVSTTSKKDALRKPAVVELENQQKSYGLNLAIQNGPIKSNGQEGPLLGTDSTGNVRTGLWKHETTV
In short: as §1

[17] = molecular target: T17, GPR34 (Homo sapiens, UniProt Q9UPC5)
T17 construct: purchased PRESTO-Tango GPCR kit (Roth lab / Addgene)
In short: as §1

[18] = molecular target: T18, HCTR2 (Homo sapiens, UniProt O43614)
T18 construct: purchased PRESTO-Tango GPCR kit (Roth lab / Addgene)
T18 sequence (O43614 whole entry): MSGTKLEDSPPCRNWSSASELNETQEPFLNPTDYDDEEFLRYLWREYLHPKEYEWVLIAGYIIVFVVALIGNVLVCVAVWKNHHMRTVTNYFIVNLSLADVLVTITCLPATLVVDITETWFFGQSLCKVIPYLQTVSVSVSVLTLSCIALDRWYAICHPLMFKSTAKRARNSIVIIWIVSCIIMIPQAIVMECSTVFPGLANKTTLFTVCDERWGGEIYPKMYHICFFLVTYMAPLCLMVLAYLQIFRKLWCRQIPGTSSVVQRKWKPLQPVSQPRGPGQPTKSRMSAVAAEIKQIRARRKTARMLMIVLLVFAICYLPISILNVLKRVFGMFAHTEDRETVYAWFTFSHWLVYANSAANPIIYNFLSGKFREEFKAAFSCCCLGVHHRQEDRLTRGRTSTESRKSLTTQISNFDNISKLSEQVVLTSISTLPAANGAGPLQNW
In short: as §1

[19] = molecular target: T19, GPR37 (Homo sapiens, UniProt O15354)
T19 construct: purchased PRESTO-Tango GPCR kit (Roth lab / Addgene)
In short: as §1

[20] = molecular target: T20, GPR88 (Homo sapiens, UniProt Q9GZN0)
T20 construct: purchased PRESTO-Tango GPCR kit (Roth lab / Addgene)
In short: as §1

[21] = molecular target: T21, GPR146 (Homo sapiens, UniProt Q96CH1)
T21 construct: purchased PRESTO-Tango GPCR kit (Roth lab / Addgene)
In short: as §1

[22] = molecular target: T22, P2RY14 (Homo sapiens, UniProt Q15391)
T22 construct: purchased PRESTO-Tango GPCR kit (Roth lab / Addgene)
In short: as §1

[23] = molecular target: T23, CYSLTR2 (Homo sapiens, UniProt Q9NS75)
T23 construct: purchased PRESTO-Tango GPCR kit (Roth lab / Addgene)
In short: as §1

[24] = molecular target: T24, SSTR1 (Homo sapiens, UniProt P30872)
T24 construct: purchased PRESTO-Tango GPCR kit (Roth lab / Addgene)
T24 sequence (P30872 whole entry): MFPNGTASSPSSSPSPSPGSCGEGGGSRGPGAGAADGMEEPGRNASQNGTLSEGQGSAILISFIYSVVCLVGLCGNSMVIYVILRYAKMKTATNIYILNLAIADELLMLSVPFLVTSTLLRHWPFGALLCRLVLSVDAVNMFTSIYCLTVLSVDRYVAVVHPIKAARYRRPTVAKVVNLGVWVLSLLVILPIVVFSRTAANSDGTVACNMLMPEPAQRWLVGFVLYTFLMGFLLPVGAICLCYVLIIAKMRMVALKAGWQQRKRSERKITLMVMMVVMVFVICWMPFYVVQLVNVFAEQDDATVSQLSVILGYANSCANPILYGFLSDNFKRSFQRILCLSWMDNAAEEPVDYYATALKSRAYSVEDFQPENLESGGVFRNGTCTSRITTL
In short: as §1

[25] = molecular target: T25, BB3 (Homo sapiens, UniProt P32247)
T25 construct: purchased PRESTO-Tango GPCR kit (Roth lab / Addgene)
In short: as §1

[26] = molecular target: T26, GPR75 (Homo sapiens, UniProt O95800)
T26 construct: purchased PRESTO-Tango GPCR kit (Roth lab / Addgene)
T26 sequence (O95800 whole entry): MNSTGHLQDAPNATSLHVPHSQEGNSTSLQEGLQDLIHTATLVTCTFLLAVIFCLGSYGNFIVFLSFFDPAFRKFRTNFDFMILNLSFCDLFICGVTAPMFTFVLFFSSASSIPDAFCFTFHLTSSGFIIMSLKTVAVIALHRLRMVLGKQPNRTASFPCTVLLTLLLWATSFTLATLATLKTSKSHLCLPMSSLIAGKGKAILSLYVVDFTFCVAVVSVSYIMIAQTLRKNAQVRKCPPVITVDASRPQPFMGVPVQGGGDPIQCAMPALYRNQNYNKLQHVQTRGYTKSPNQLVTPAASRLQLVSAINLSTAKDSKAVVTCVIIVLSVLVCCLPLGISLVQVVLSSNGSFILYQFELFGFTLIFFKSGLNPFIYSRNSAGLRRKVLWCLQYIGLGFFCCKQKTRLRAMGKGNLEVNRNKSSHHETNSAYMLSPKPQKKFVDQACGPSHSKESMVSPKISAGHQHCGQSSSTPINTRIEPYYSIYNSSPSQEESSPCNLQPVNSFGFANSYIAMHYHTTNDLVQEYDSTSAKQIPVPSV
In short: as §1

[27] = molecular target: T27, OXGR1 (Homo sapiens, UniProt Q96P68)
T27 construct: purchased PRESTO-Tango GPCR kit (Roth lab / Addgene)
In short: as §1

[28] = molecular target: T28, FFA1 (Homo sapiens, UniProt O14842)
T28 construct: purchased PRESTO-Tango GPCR kit (Roth lab / Addgene)
In short: as §1

[29] = molecular target: T29, GPR183 (Homo sapiens, UniProt P32249)
T29 construct: purchased PRESTO-Tango GPCR kit (Roth lab / Addgene)
T29 sequence (P32249 whole entry): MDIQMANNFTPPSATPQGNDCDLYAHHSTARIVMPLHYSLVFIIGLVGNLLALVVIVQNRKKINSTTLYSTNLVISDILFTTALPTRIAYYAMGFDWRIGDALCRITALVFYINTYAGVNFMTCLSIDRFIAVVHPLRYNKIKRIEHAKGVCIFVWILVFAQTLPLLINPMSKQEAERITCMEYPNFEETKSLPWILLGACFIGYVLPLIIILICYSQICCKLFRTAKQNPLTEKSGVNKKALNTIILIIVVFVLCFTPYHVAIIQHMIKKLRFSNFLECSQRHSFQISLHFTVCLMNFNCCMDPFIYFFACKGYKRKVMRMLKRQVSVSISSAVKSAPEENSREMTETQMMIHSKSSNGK
In short: as §1

[30] = molecular target: T30, MRGPRX3 (Homo sapiens, UniProt Q96LB0)
T30 construct: purchased PRESTO-Tango GPCR kit (Roth lab / Addgene)
In short: as §1

[31] = molecular target: T31, NPFF2 (Homo sapiens, UniProt Q9Y5X5)
T31 construct: purchased PRESTO-Tango GPCR kit (Roth lab / Addgene)
In short: as §1

[32] = molecular target: T32, GPR152 (Homo sapiens, UniProt Q8TDT2)
T32 construct: purchased PRESTO-Tango GPCR kit (Roth lab / Addgene)
In short: as §1

[33] = molecular target: T33, GPR119 (Homo sapiens, UniProt Q8TDV5)
T33 construct: purchased PRESTO-Tango GPCR kit (Roth lab / Addgene)
In short: as §1

[34] = molecular target: T34, PTGFR (Homo sapiens, UniProt P43088)
T34 construct: purchased PRESTO-Tango GPCR kit (Roth lab / Addgene)
In short: as §1

[35] = molecular target: T35, GPR44 (Homo sapiens, UniProt Q9Y5Y4)
T35 construct: purchased PRESTO-Tango GPCR kit (Roth lab / Addgene)
In short: as §1

CC(C)Cc1ncc(CCCCNC(=N)N)[nH]c1=O [3-Homo]
GPCR activation (heatmap value) [1]: 0.01764 | GPCR activation (heatmap value) [2]: 0.4025 | GPCR activation (heatmap value) [3]: -0.26 | GPCR activation (heatmap value) [4]: 0.7917 | GPCR activation (heatmap value) [5]: -0.1574 | GPCR activation (heatmap value) [6]: -0.1726 | GPCR activation (heatmap value) [7]: -0.1118 | GPCR activation (heatmap value) [8]: 0.2402 | GPCR activation (heatmap value) [9]: -1.44 | GPCR activation (heatmap value) [10]: -0.4496 | GPCR activation (heatmap value) [11]: -0.2248 | GPCR activation (heatmap value) [12]: -1.403 | GPCR activation (heatmap value) [13]: -0.05748 | GPCR activation (heatmap value) [14]: 1.0914 | GPCR activation (heatmap value) [15]: 0.1689 | GPCR activation (heatmap value) [16]: -0.2637 | GPCR activation (heatmap value) [17]: -0.6255 | GPCR activation (heatmap value) [18]: -1.63 | GPCR activation (heatmap value) [19]: -0.008314 | GPCR activation (heatmap value) [20]: -0.7293 | GPCR activation (heatmap value) [21]: -0.8234 | GPCR activation (heatmap value) [22]: 0.07991 | GPCR activation (heatmap value) [23]: -0.09894 | GPCR activation (heatmap value) [24]: -0.2346 | GPCR activation (heatmap value) [25]: -0.2556 | GPCR activation (heatmap value) [26]: 0.5978 | GPCR activation (heatmap value) [27]: 0.2343 | GPCR activation (heatmap value) [28]: -0.171 | GPCR activation (heatmap value) [29]: -0.6232 | GPCR activation (heatmap value) [30]: -1.005 | GPCR activation (heatmap value) [31]: -0.3895 | GPCR activation (heatmap value) [32]: -0.3396 | GPCR activation (heatmap value) [33]: -1.3809 | GPCR activation (heatmap value) [34]: 0.3992 | GPCR activation (heatmap value) [35]: 0.02511

CC(C)Cc1ncc(CCCNC(=N)N)[nH]c1=O [compound 3]
GPCR activation (heatmap value) [1]: 0.0619 | GPCR activation (heatmap value) [2]: -0.3752 | GPCR activation (heatmap value) [3]: 0.08813 | GPCR activation (heatmap value) [4]: 0.6628 | GPCR activation (heatmap value) [5]: -0.2331 | GPCR activation (heatmap value) [6]: -0.2048 | GPCR activation (heatmap value) [7]: -0.7714 | GPCR activation (heatmap value) [8]: -0.1192 | GPCR activation (heatmap value) [9]: -0.2056 | GPCR activation (heatmap value) [10]: -1.123 | GPCR activation (heatmap value) [11]: 0.4506 | GPCR activation (heatmap value) [12]: -1.186 | GPCR activation (heatmap value) [13]: -1.212 | GPCR activation (heatmap value) [14]: 0.793 | GPCR activation (heatmap value) [15]: 0.04943 | GPCR activation (heatmap value) [16]: 0.4657 | GPCR activation (heatmap value) [17]: 0.3024 | GPCR activation (heatmap value) [18]: -0.2618 | GPCR activation (heatmap value) [19]: -0.4356 | GPCR activation (heatmap value) [20]: -0.2878 | GPCR activation (heatmap value) [21]: -0.2269 | GPCR activation (heatmap value) [22]: 0.6085 | GPCR activation (heatmap value) [23]: -0.2194 | GPCR activation (heatmap value) [24]: 0.2369 | GPCR activation (heatmap value) [25]: 0.3176 | GPCR activation (heatmap value) [26]: -1.251 | GPCR activation (heatmap value) [27]: -0.2265 | GPCR activation (heatmap value) [28]: -0.7235 | GPCR activation (heatmap value) [29]: -0.9955 | GPCR activation (heatmap value) [30]: -1.319 | GPCR activation (heatmap value) [31]: -0.5121 | GPCR activation (heatmap value) [32]: -1.289 | GPCR activation (heatmap value) [33]: 0.03995 | GPCR activation (heatmap value) [34]: 0.901 | GPCR activation (heatmap value) [35]: 0.23
